In patent publication US20250346602A1, “LACTAM SUBSTITUTED IMIDAZOPYRIDAZINE IL-17A MODULATORS AND USES THEREOF” (DICE ALPHA, INC., priority 2022, published 2025):

Target: T1, IL-17A/A (Homo sapiens, UniProt Q16552)
T1 construct: purchased Genscript Z03228
T1 sequence (Q16552 24-155): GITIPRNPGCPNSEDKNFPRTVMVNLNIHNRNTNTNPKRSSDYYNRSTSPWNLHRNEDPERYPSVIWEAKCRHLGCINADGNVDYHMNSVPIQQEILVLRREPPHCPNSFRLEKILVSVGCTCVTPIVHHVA
Assay: IL-17A/A HEK-Blue cell assay
Type: cell-based
Details: HEK-Blue IL-17A reporter cell line (HEK 293), IL-17A/A stimulation, 20 hours incubation, SEAP read at A630
Summary of the method: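 IC50 came from a 4-parameter fit of SEAP read at A630 (Quanti-Blue). Compound was titrated to a top final concentration of 10, 1 or 0.3 uM with 0.1% final DMSO and added just before IL-17A/A. Incubation lasted 20 hours in HEK293 cells engineered with IL-17RA, IL-17RC, Act1 and an NFκB-SEAP reporter.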

Compound	IC50 [µM]
CC[C@@H]1CC(Cc2ccc3nc([C@@H](NC(=O)c4ccnn4CC)[C@H]4CC[C@H](C)CC4)cn3n2)C(=O)N1 (stereo partly drawn) [Compound 59, 1-ethyl-N-((1S)-(6-(((5R)-5-ethyl-2-oxopyrrolidin-3-yl)methyl)imidazo[1,2-b]pyridazin-2-yl)((1r,4S)-4-methylcyclohexyl)methyl)-1H-pyrazole-5-carboxamide]	0.1 to 1
C[C@H]1CC[C@H]([C@H](NC(=O)c2conc2C2CC2)c2cn3nc(CC4C[C@@H](C(F)(F)F)CNC4=O)ccc3n2)CC1 (stereo partly drawn) [Compound 161, 3-cyclopropyl-N-((1S)-((1R.4S)-4-methylcyclohexyl)(6-(((5R)-2-oxo-5-(trifluoromethyl)piperidin-3-yl)methyl)imidazo[1,2-b]pyridazin-2-yl)methyl)isoxazole-4-carboxamide]	< 0.1
CCn1nccc1C(=O)N[C@H](c1cn2nc(CC3CCCNC3=O)ccc2n1)C1CCCCCC1 (single isomer, unassigned) [Compound 11]	> 1
CCn1nccc1C(=O)N[C@H](c1cn2ncc(CC3C[C@@H](C(F)(F)F)NC3=O)cc2n1)C(C1CC1)C1CC1 (single isomer, unassigned) [Compound 202]	0.1 to 1
CCn1nccc1C(=O)NC(c1cn2ncc(CC3CCC(C(F)(F)F)NC3=O)cc2n1)C1CCC(C)CC1 (single isomer, unassigned) [Compound 213]	> 1
CC(C)n1nncc1C(=O)N[C@H](c1cn2nc(CC3C[C@@H](C(F)(F)F)CNC3=O)ccc2n1)[C@H]1CC[C@H](C)CC1 (stereo partly drawn) [Compound 163, N-((1S)-((1R.4S)-4-methylcyclohexyl)(6-(((5R)-2-oxo-5-(trifluoromethyl)piperidin-3-yl)methyl)imidazo[1,2-b]pyridazin-2-yl)methyl)-1-isopropyl-1H-1,2,3-triazole-5-carboxamide]	0.1 to 1
CCN(C)c1cc2nc([C@@H](NC(=O)c3ccnn3CC)C3CCC(F)(F)CC3)cn2nc1CC1C[C@@H](C(F)(F)F)CNC1=O (single isomer, unassigned) [Compound 88]	< 0.1
CCn1nccc1C(=O)N[C@H](c1cn2ncc(CC3C[C@@H](C(F)(F)F)NC3=O)cc2n1)[C@H]1CC[C@H](C)CC1 (single isomer, unassigned) [Compound 212]	< 0.1
CC(C)(F)c1nocc1C(=O)N[C@H](c1cn2nc(CC3C[C@@H](C(F)(F)F)CNC3=O)ccc2n1)C1CCC(F)(F)CC1 (stereo partly drawn) [Compound 121, N-((1S)-(4,4-difluorocyclohexyl)(6-(((5R)-2-oxo-5-(trifluoromethyl)piperidin-3-yl)methyl)imidazo[1,2-b]pyridazin-2-yl)methyl)-3-(2-fluoropropan-2-yl)isoxazole-4-carboxamide]	0.1 to 1
CCn1nccc1C(=O)N[C@H](c1cn2nc(CC3CC(F)(F)CNC3=O)c(C)cc2n1)C1CCC(F)(F)CC1 (single isomer, unassigned) [Compound 76]	0.1 to 1
Cc1conc1C(=O)N[C@H](c1cn2nc(CC3C[C@@H](C(F)(F)F)CNC3=O)ccc2n1)C1CCC(F)(F)CC1 (stereo partly drawn) [Compound 103, N-((1S)-(4,4-difluorocyclohexyl)(6-(((5R)-2-oxo-5-(trifluoromethyl)piperidin-3-yl)methyl)imidazo[1,2-b]pyridazin-2-yl)methyl)-4-methylisoxazole-3-carboxamide]	0.1 to 1
CCn1nccc1C(=O)NC(c1cn2ncc(CC3CC(F)(F)CNC3=O)cc2n1)C1CCC(C)CC1 (single isomer, unassigned) [Compound 211]	0.1 to 1
O=C(N[C@H](c1cn2nc(CC3C[C@@H](C(F)(F)F)CNC3=O)ccc2n1)C1CCC(F)(F)CC1)c1cnsn1 (stereo partly drawn) [Compound 132, N-((1S)-(4,4-difluorocyclohexyl)(6-(((5R)-2-oxo-5-(trifluoromethyl)piperidin-3-yl)methyl)imidazo[1,2-b]pyridazin-2-yl)methyl)-1,2,5-thiadiazole-3-carboxamide]	> 1
O=C(N[C@H](c1cn2nc(CC3C[C@@H](C(F)(F)F)CNC3=O)ccc2n1)C1CCC(F)(F)CC1)c1ccnn1CCF (stereo partly drawn) [Compound 101, N-((1S)-(4,4-difluorocyclohexyl)(6-(((5R)-2-oxo-5-(trifluoromethyl)piperidin-3-yl)methyl)imidazo[1,2-b]pyridazin-2-yl)methyl)-1-(2-fluoroethyl)-1H-pyrazole-5-carboxamide]	0.1 to 1
Cc1nocc1C(=O)N[C@H](c1cn2nc(CC3C[C@@H](C(F)(F)F)CNC3=O)ccc2n1)C1CCC(F)(F)CC1 (stereo partly drawn) [Compound 118, N-((1S)-(4,4-difluorocyclohexyl)(6-(((5R)-2-oxo-5-(trifluoromethyl)piperidin-3-yl)methyl)imidazo[1,2-b]pyridazin-2-yl)methyl)-3-methylisoxazole-4-carboxamide]	0.1 to 1
CCc1nonc1C(=O)N[C@H](c1cn2nc(C[C@H]3CCCNC3=O)ccc2n1)C(C1CC1)C1CC1 [Compound 35, N—((S)-2,2-dicyclopropyl-1-(6-(((R)-2-oxopiperidin-3-yl)methyl)imidazo[1,2-b]pyridazin-2-yl)ethyl)-4-ethyl-1,2,5-oxadiazole-3-carboxamide]	0.1 to 1
CCn1nccc1C(=O)N[C@@H](c1cn2nc(CC3C[C@@H](C(F)(F)F)CNC3=O)ccc2n1)[C@@H]1C[C@H]2C[C@H]2C1 (stereo partly drawn) [Compound 171, N-((1R)-((1R,3S,5S)-bicyclo[3.1.0]hexan-3-yl)(6-(((5R)-2-oxo-5-(trifluoromethyl)piperidin-3-yl)methyl)imidazo[1,2-b]pyridazin-2-yl)methyl)-1-ethyl-1H-pyrazole-5-carboxamide]	0.1 to 1
O=C(N[C@H](c1cn2nc(CC3C[C@H](C(F)(F)F)CNC3=O)ccc2n1)[C@H]1CCCC(F)(F)C1)c1conc1C1CC1 (stereo partly drawn) [Compound 157, 3-cyclopropyl-N-((1S)—((S)-3,3-difluorocyclohexyl)(6-(((5S)-2-oxo-5-(trifluoromethyl)piperidin-3-yl)methyl)imidazo[1,2-b]pyridazin-2-yl)methyl)isoxazole-4-carboxamide]	< 0.1
CCn1nccc1C(=O)N[C@H](c1cn2nc(CC3C[C@@H](C(F)(F)F)CNC3=O)c(C)cc2n1)C1CCC(F)(F)CC1 (single isomer, unassigned) [Compound 82]	> 1
O=C(N[C@H](c1cn2nc(CC3C[C@@H](C(F)(F)F)CNC3=O)ccc2n1)C1CCC(F)(F)CC1)c1conc1CCF (stereo partly drawn) [Compound 110, N-((1S)-(4,4-difluorocyclohexyl)(6-(((5R)-2-oxo-5-(trifluoromethyl)piperidin-3-yl)methyl)imidazo[1,2-b]pyridazin-2-yl)methyl)-3-(2-fluoroethyl)isoxazole-4-carboxamide]	0.1 to 1
CCn1nccc1C(=O)N[C@H](c1cn2nc(CC3C[C@@H](C(F)(F)F)CNC3=O)c(C(C)(C)O)cc2n1)C1CCC(F)(F)CC1 (stereo partly drawn) [Compound 186, N-((1S)-(4,4-difluorocyclohexyl)(7-(2-hydroxypropan-2-yl)-6-(((5R)-2-oxo-5-(trifluoromethyl)piperidin-3-yl)methyl)imidazo[1,2-b]pyridazin-2-yl)methyl)-1-ethyl-1H-pyrazole-5-carboxamide]	< 0.1
CCn1nccc1C(=O)N[C@H](c1cn2nc(CC3CC(F)(F)CNC3=O)ccc2n1)C1CCCCCC1 (single isomer, unassigned) [Compound 9, N-((1 S)-cycloheptyl(6-((5,5-difluoro-2-oxopiperidin-3-yl)methyl)imidazo[1,2-b]pyridazin-2-yl)methyl)-1-ethyl-1H-pyrazole-5-carboxamide]	< 0.1
CCn1nccc1C(=O)N[C@H](c1cn2nc(CC3C[C@@H](C(F)(F)F)CNC3=O)c(C(F)(F)F)cc2n1)[C@H]1CC[C@H](C)CC1 (single isomer, unassigned) [Compound 78]	0.1 to 1
O=C(N[C@H](c1cn2nc(CC3C[C@@H](C(F)(F)F)CNC3=O)ccc2n1)C1CCC(F)(F)CC1)c1conc1C1CC1(F)F (single isomer, unassigned) [Compound 126]	< 0.1
CCn1nccc1C(=O)N[C@H](c1cn2nc(CC3CC(F)(F)CNC3=O)ccc2n1)C1CCC(F)(F)CC1 (single isomer, unassigned) [Compound 25]	0.1 to 1
CC(C)c1nocc1C(=O)N[C@H](c1cn2nc(CC3C[C@@H](C(F)(F)F)CNC3=O)ccc2n1)C1CCC(F)(F)CC1 (stereo partly drawn) [Compound 102, N-((1S)-(4,4-difluorocyclohexyl)(6-(((5R)-2-oxo-5-(trifluoromethyl)piperidin-3-yl)methyl)imidazo[1,2-b]pyridazin-2-yl)methyl)-3-isopropylisoxazole-4-carboxamide]	< 0.1
Cc1nonc1C(=O)N[C@H](c1cn2nc(C[C@H]3CCCNC3=O)ccc2n1)C1CCC(F)(F)CC1 [Compound 38, N—((S)-(4,4-difluorocyclohexyl)(6-(((R)-2-oxopiperidin-3-yl)methyl)imidazo[1,2-b]pyridazin-2-yl)methyl)-4-methyl-1,2,5-oxadiazole-3-carboxamide]	> 1
O=C(N[C@H](c1cn2nc(CC3C[C@H](C(F)(F)F)CNC3=O)ccc2n1)[C@@H]1CCCC(F)(F)C1)c1nonc1C1CC1 (stereo partly drawn) [Compound 156, 4-cyclopropyl-N—((S)-((R)-3,3-difluorocyclohexyl)(6-(((5S)-2-oxo-5-(trifluoromethyl)piperidin-3-yl)methyl)imidazo[1,2-b]pyridazin-2-yl)methyl)-1,2,5-oxadiazole-3-carboxamide]	0.1 to 1
CCn1nccc1C(=O)NC(c1cn2nc(CC3C[C@@H](C(F)(F)F)CNC3=O)ccc2n1)C1CCC2CC2CC1 (single isomer, unassigned) [Compound 174]	> 1
